Measurements as given in patent US11254663B2 (BRISTOL-MYERS SQUIBB COMPANY, priority 2019, dated 2022).

Each compound was assayed against FXR (Homo sapiens (Human), UniProt Q96RI1) (assay: transient human FXR/Gal4-luciferase reporter assay). Conditions: Gal4-hFXR fusion construct, HEK293 reporter cells; response relative to 8 μM GW-4064.
FXR, sequence (Q96RI1 262-486): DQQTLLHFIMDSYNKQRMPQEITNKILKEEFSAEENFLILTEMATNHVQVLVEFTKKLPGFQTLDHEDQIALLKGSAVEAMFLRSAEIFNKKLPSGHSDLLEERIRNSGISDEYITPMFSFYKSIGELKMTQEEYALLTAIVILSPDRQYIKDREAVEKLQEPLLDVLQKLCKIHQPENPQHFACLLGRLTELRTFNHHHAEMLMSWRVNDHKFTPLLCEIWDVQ
Format: cell-based
Outline: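 HEK293 cells stably carrying a 5×Gal4 response element–firefly luciferase reporter were transiently transfected overnight with a Gal4 DBD–human FXR LBD fusion plasmid. Compound was added in DMSO and cells were incubated overnight at 37 °C, 5% CO2. Activity was read as Steady-Glo luminescence.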
For `Cc1ccc(-c2cccc(N(CC34CCC(c5nc(C6CC6)no5)(CC3)CC4)C(=O)C34CC(F)(C3)C4)c2)nn1` [Example 295, N-((4-(3-cyclopropyl-1,2,4-oxadiazol-5-yl)bicyclo[2.2.2]octan-1-yl)methyl)-3-fluoro-N-(3-(6-methylpyridazin-3-yl)phenyl)bicyclo[1.1.1]pentane-1-carboxamide], the EC50 was 839 nM.
`COc1ccc(-c2cccc(N(CC34CCC(c5nc(C6CC6)no5)(CC3)CC4)C(=O)C34CC(F)(C3)C4)c2)cc1C#N` [Example 296, N-(3′-cyano-4′-methoxy-[1,1′-biphenyl]-3-yl)-N-((4-(3-cyclopropyl-1,2,4-oxadiazol-5-yl)bicyclo[2.2.2]octan-1-yl)methyl)-3-fluorobicyclo[1.1.1]pentane-1-carboxamide] was tested, and the EC50 was 294 nM.
`N#Cc1ccc(-c2cccc(N(CC34CCC(c5nc(C6CC6)no5)(CC3)CC4)C(=O)C34CC(F)(C3)C4)c2)nc1` [Example 297, N-(3-(5-cyanopyridin-2-yl)phenyl)-N-((4-(3-cyclopropyl-1,2,4-oxadiazol-5-yl)bicyclo[2.2.2]octan-1-yl)methyl)-3-fluorobicyclo[1.1.1]pentane-1-carboxamide] was tested, and the EC50 was 1250 nM.
`O=C(N(CC12CCC(c3nc(C4CC4)no3)(CC1)CC2)c1cccc(-c2ccn3ncnc3c2)c1)C12CC(F)(C1)C2` [Example 298, N-(3-([1,2,4]triazolo[1,5-a]pyridin-7-yl)phenyl)-N-((4-(3-cyclopropyl-1,2,4-oxadiazol-5-yl)bicyclo[2.2.2]octan-1-yl)methyl)-3-fluorobicyclo[1.1.1]pentane-1-carboxamide] showed an EC50 of 1680 nM.
In the case of `O=C(N(CC12CCC(c3nc(C4CC4)no3)(CC1)CC2)c1cccc(-c2cccc(OC(F)(F)C(F)F)c2)c1)C12CC(F)(C1)C2` [Example 299, N-((4-(3-cyclopropyl-1,2,4-oxadiazol-5-yl)bicyclo[2.2.2]octan-1-yl)methyl)-3-fluoro-N-(3′-(1,1,2,2-tetrafluoroethoxy)-[1,1′-biphenyl]-3-yl)bicyclo[1.1.1]pentane-1-carboxamide], the EC50 is reported as 660 nM.
`Cc1ccnc(-c2cccc(N(CC34CCC(c5nc(C6CC6)no5)(CC3)CC4)C(=O)C34CC(F)(C3)C4)c2)n1` [Example 300, N-((4-(3-cyclopropyl-1,2,4-oxadiazol-5-yl)bicyclo[2.2.2]octan-1-yl)methyl)-3-fluoro-N-(3-(4-methylpyrimidin-2-yl)phenyl)bicyclo[1.1.1]pentane-1-carboxamide] gave an EC50 of 413 nM.
With `COc1ccc(-c2cccc(N(CC34CCC(c5nc(C6CC6)no5)(CC3)CC4)C(=O)C34CC(F)(C3)C4)c2)cc1OC` [Example 301, N-((4-(3-cyclopropyl-1,2,4-oxadiazol-5-yl)bicyclo[2.2.2]octan-1-yl)methyl)-N-(3′,4′-dimethoxy-[1,1′-biphenyl]-3-yl)-3-fluorobicyclo[1.1.1]pentane-1-carboxamide] the EC50 was 519 nM.
Work on `N#Cc1ccc(-c2cccc(N(CC34CCC(c5nc(C6CC6)no5)(CC3)CC4)C(=O)C34CC(F)(C3)C4)c2)cc1` [Example 302, N-(4′-cyano-[1,1′-biphenyl]-3-yl)-N-((4-(3-cyclopropyl-1,2,4-oxadiazol-5-yl)bicyclo[2.2.2]octan-1-yl)methyl)-3-fluorobicyclo[1.1.1]pentane-1-carboxamide] yielded an EC50 of 861 nM.
For `Cc1nc2cc(-c3cccc(N(CC45CCC(c6nc(C7CC7)no6)(CC4)CC5)C(=O)C45CC(F)(C4)C5)c3)ccc2s1` [Example 303, N-((4-(3-cyclopropyl-1,2,4-oxadiazol-5-yl)bicyclo[2.2.2]octan-1-yl)methyl)-3-fluoro-N-(3-(2-methylbenzo[d]thiazol-5-yl)phenyl)bicyclo[1.1.1]pentane-1-carboxamide], the EC50 was 349 nM.
`Cn1ncc2cc(-c3cccc(N(CC45CCC(c6nc(C7CC7)no6)(CC4)CC5)C(=O)C45CC(F)(C4)C5)c3)ccc21` [Example 304, N-((4-(3-cyclopropyl-1,2,4-oxadiazol-5-yl)bicyclo[2.2.2]octan-1-yl)methyl)-3-fluoro-N-(3-(1-methyl-1H-indazol-5-yl)phenyl)bicyclo[1.1.1]pentane-1-carboxamide] showed an EC50 of 248 nM.
In the case of `Cc1nc2cc(-c3cccc(N(CC45CCC(c6nc(C7CC7)no6)(CC4)CC5)C(=O)C45CC(F)(C4)C5)c3)ccc2o1` [Example 305, N-((4-(3-cyclopropyl-1,2,4-oxadiazol-5-yl)bicyclo[2.2.2]octan-1-yl)methyl)-3-fluoro-N-(3-(2-methylbenzo[d]oxazol-5-yl)phenyl)bicyclo[1.1.1]pentane-1-carboxamide], the EC50 is reported as 301 nM.
In the case of `N#Cc1cnc2ccc(-c3cccc(N(CC45CCC(c6nc(C7CC7)no6)(CC4)CC5)C(=O)C45CC(F)(C4)C5)c3)nn12` [Example 306, N-(3-(3-cyanoimidazo[1,2-b]pyridazin-6-yl)phenyl)-N-((4-(3-cyclopropyl-1,2,4-oxadiazol-5-yl)bicyclo[2.2.2]octan-1-yl)methyl)-3-fluorobicyclo[1.1.1]pentane-1-carboxamide], the EC50 is reported as 386 nM.
In the case of `O=C(N(CC12CCC(c3nc(C4CC4)no3)(CC1)CC2)c1cccc(-c2ccn3cnnc3c2)c1)C12CC(F)(C1)C2` [Example 307, N-(3-([1,2,4]triazolo[4,3-a]pyridin-7-yl)phenyl)-N-((4-(3-cyclopropyl-1,2,4-oxadiazol-5-yl)bicyclo[2.2.2]octan-1-yl)methyl)-3-fluorobicyclo[1.1.1]pentane-1-carboxamide], the EC50 is reported as 832 nM.
Work on `O=C(N(CC12CCC(c3nc(C4CC4)no3)(CC1)CC2)c1cccc(-c2ccc(OC(F)F)cc2)c1)C12CC(F)(C1)C2` [Example 308, N-((4-(3-cyclopropyl-1,2,4-oxadiazol-5-yl)bicyclo[2.2.2]octan-1-yl)methyl)-N-(4′-(difluoromethoxy)-[1,1′-biphenyl]-3-yl)-3-fluorobicyclo[1.1.1]pentane-1-carboxamide] yielded an EC50 of 15 nM.
Compound `O=C(N(CC12CCC(c3nc(C4CC4)no3)(CC1)CC2)c1cccc(-c2cccn3ncnc23)c1)C12CC(F)(C1)C2` [Example 309, N-(3-([1,2,4]triazolo[1,5-a]pyridin-8-yl)phenyl)-N-((4-(3-cyclopropyl-1,2,4-oxadiazol-5-yl)bicyclo[2.2.2]octan-1-yl)methyl)-3-fluorobicyclo[1.1.1]pentane-1-carboxamide] has an EC50 of 221 nM.
`Cc1cnc(-c2cccc(N(CC34CCC(c5nc(C6CC6)no5)(CC3)CC4)C(=O)C34CC(F)(C3)C4)c2)cn1` [Example 310, N-((4-(3-cyclopropyl-1,2,4-oxadiazol-5-yl)bicyclo[2.2.2]octan-1-yl)methyl)-3-fluoro-N-(3-(5-methylpyrazin-2-yl)phenyl)bicyclo[1.1.1]pentane-1-carboxamide] gave an EC50 of 59 nM.
With `N#Cc1ccc(-c2cccc(N(CC34CCC(c5nc(C6CC6)no5)(CC3)CC4)C(=O)C34CC(F)(C3)C4)c2)c2cccnc12` [Example 311, N-(3-(8-cyanoquinolin-5-yl)phenyl)-N-((4-(3-cyclopropyl-1,2,4-oxadiazol-5-yl)bicyclo[2.2.2]octan-1-yl)methyl)-3-fluorobicyclo[1.1.1]pentane-1-carboxamide] the EC50 was 662 nM.
Compound `Cc1c(-c2cccc(N(CC34CCC(c5nc(C6CC6)no5)(CC3)CC4)C(=O)C34CC(F)(C3)C4)c2)cn2ncnc2c1C` [Example 312, N-((4-(3-cyclopropyl-1,2,4-oxadiazol-5-yl)bicyclo[2.2.2]octan-1-yl)methyl)-N-(3-(7,8-dimethyl-[1,2,4]triazolo[1,5-a]pyridin-6-yl)phenyl)-3-fluorobicyclo[1.1.1]pentane-1-carboxamide] has an EC50 of 916 nM.
Compound `Cn1ncc2cc(C#N)c(-c3cccc(N(CC45CCC(c6nc(C7CC7)no6)(CC4)CC5)C(=O)C45CC(F)(C4)C5)c3)nc21` [Example 313, N-(3-(5-cyano-1-methyl-1H-pyrazolo[3,4-b]pyridin-6-yl)phenyl)-N-((4-(3-cyclopropyl-1,2,4-oxadiazol-5-yl)bicyclo[2.2.2]octan-1-yl)methyl)-3-fluorobicyclo[1.1.1]pentane-1-carboxamide] has an EC50 of 194 nM.
With `N#Cc1cnn2c(-c3cccc(N(CC45CCC(c6nc(C7CC7)no6)(CC4)CC5)C(=O)C45CC(F)(C4)C5)c3)cnc2c1` [Example 314, N-(3-(7-cyanoimidazo[1,2-b]pyridazin-3-yl)phenyl)-N-((4-(3-cyclopropyl-1,2,4-oxadiazol-5-yl)bicyclo[2.2.2]octan-1-yl)methyl)-3-fluorobicyclo[1.1.1]pentane-1-carboxamide] the EC50 was 504 nM.
Work on `O=C(N(CC12CCC(c3nc(C4CC4)no3)(CC1)CC2)c1cccc(-c2nc(Cl)nn3cccc23)c1)C12CC(F)(C1)C2` [Example 315, N-(3-(2-chloropyrrolo[2,1-f][1,2,4]triazin-4-yl)phenyl)-N-((4-(3-cyclopropyl-1,2,4-oxadiazol-5-yl)bicyclo[2.2.2]octan-1-yl)methyl)-3-fluorobicyclo[1.1.1]pentane-1-carboxamide] yielded an EC50 of 913 nM.
Compound `N#Cc1cc2sccc2nc1-c1cccc(N(CC23CCC(c4nc(C5CC5)no4)(CC2)CC3)C(=O)C23CC(F)(C2)C3)c1` [Example 316, N-(3-(6-cyanothieno[3,2-b]pyridin-5-yl)phenyl)-N-((4-(3-cyclopropyl-1,2,4-oxadiazol-5-yl)bicyclo[2.2.2]octan-1-yl)methyl)-3-fluorobicyclo[1.1.1]pentane-1-carboxamide] has an EC50 of 138 nM.
For `O=C(N(CC12CCC(c3nc(C4CC4)no3)(CC1)CC2)c1cccc(-c2cc(F)c3nccn3c2)c1)C12CC(F)(C1)C2` [Example 317, N-((4-(3-cyclopropyl-1,2,4-oxadiazol-5-yl)bicyclo[2.2.2]octan-1-yl)methyl)-3-fluoro-N-(3-(8-fluoroimidazo[1,2-a]pyridin-6-yl)phenyl)bicyclo[1.1.1]pentane-1-carboxamide], the EC50 was 887 nM.
With `O=C(N(CC12CCC(c3nc(C4CC4)no3)(CC1)CC2)c1cccc(-c2cnc3cccnn23)c1)C12CC(F)(C1)C2` [Example 318, N-((4-(3-cyclopropyl-1,2,4-oxadiazol-5-yl)bicyclo[2.2.2]octan-1-yl)methyl)-3-fluoro-N-(3-(imidazo[1,2-b]pyridazin-3-yl)phenyl)bicyclo[1.1.1]pentane-1-carboxamide] the EC50 was 172 nM.
